Literature values in paper PMC6095934, “Impact of rifampicin-inhibitable transport on the liver distribution and tissue kinetics of erlotinib assessed with PET imaging in rats” (EJNMMI Research, 2018).

Columns and labels:
OAT3 [1] = system: OAT3; design: method as in PMID 21088257
OAT1 [2] = system: OAT1; design: method as in PMID 21088257
OAT2 = system: OAT2; design: method as in PMID 21088257
human OATP2B1 [3] = details: in vitro, transfected cells
OCT2 [4] = system: OCT2; design: method as in PMID 21088257, PMID 26976869
[5] = NSCLC patients, 150 mg erlotinib once daily
MRP2 (ABCC2) [6] = system: MRP2 (ABCC2); design: method as in PMID 18723475
OCT2 [7] = system: OCT2; design: method as in PMID 21088257, PMID 26976869; remark: listed apart in the source
OATP4C1 = system: OATP4C1; design: method as in PMID 28550055
OAT1 [8] = system: OAT1
MRP2 (ABCC2) [9] = system: MRP2 (ABCC2); design: method as in PMID 23440558; details: canalicular side of hepatocytes
[10] = system: organic anion transporter 2 (OAT2, SLC22A7); details: in vitro
human OATP2B1 [11] = system: human OATP2B1
[12] = system: organic cation transporter 1 (OCT1, SLC22A1)
OAT3 [13] = system: OAT3

Compound	substrate of OAT3 (OAT3 [1])	transport by OAT1 (OAT1 [2])	transport by OAT2 (OAT2)	transport by human OATP2B1 (human OATP2B1 [3])	substrate of OCT2 (OCT2 [4])	interpatient variability in area under the curve (AUC) [5] [%]	interpatient variability in trough plasma concentrations [5] [%]	substrate of MRP2 (MRP2 (ABCC2) [6])	inhibition of OCT2 (OCT2 [7])	Ki (rOATP1A1) [µM]	Ki (rOATP1B2) [µM]	inhibition of OATP4C1 (OATP4C1)	inhibition of OAT1 (OAT1 [8])	inhibition of MRP2 (MRP2 (ABCC2) [9])	IC50 (human OATP1B3) [µM]	inhibition of OAT2 [10]	IC50 (human OATP1B1) [µM]	IC50 (human OATP2B1 [11]) [µM]	Ki [12] [µM]	inhibition of OAT3 (OAT3 [13])
C#Cc1cccc(Nc2ncnc3cc(OCCOC)c(OCCOC)cc23)c1 [erlotinib, Erlotinib]	substrate	neither transported	neither transported	specifically transported	substrate	51	64	not a substrate	–	–	–	–	–	–	–	–	–	–	–	–
CO[C@H]1/C=C/O[C@@]2(C)Oc3c(C)c(O)c4c(O)c(c(/C=N/N5CCN(C)CC5)c(O)c4c3C2=O)NC(=O)/C(C)=C\C=C\[C@H](C)[C@H](O)[C@@H](C)[C@@H](O)[C@@H](C)[C@H](OC(C)=O)[C@@H]1C [rifampicin, Rifampicin]	–	–	–	–	–	–	–	–	not inhibited	18	0.79	not an inhibitor	inhibitor	potent inhibitor	6.4 ± 0.5	inhibited neither	1.9 ± 0.16	91 ± 14.6	> 100	not
